From article PMC6576746, “Rational discovery of dual-indication multi-target PDE/Kinase inhibitor for precision anti-cancer therapy using structural systems pharmacology” (PLoS Computational Biology, 2019)
pKd: −log10 of the molar value.

Assays:
[1] = molecular target: T1, RIOK1 (serine/threonine-protein kinase RIOK1) (Homo sapiens, UniProt Q9BRS2); experiment: KinomeScan competition binding assay, dose-response; details: DiscoverX; Hill equation fit
T1 construct: DiscoverX KinomeScan panel kinase

[2] = molecular target: KIT (Homo sapiens, UniProt P10721); experiment: KinomeScan competition binding assay; design: DiscoverX KinomeScan panel kinase; details: 10 μM levosimendan
[3] = molecular target: INSRR (Homo sapiens, UniProt P14616); experiment: biochemical; design: DiscoverX KinomeScan competition binding assay across human kinases; per cent of control at 10 and 100 uM; details: competition binding, % of control; read-out: Percent Control (100 uM Levosimendan)
Outline: (§1)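 KinomeScan competition binding was run across a human kinase panel at 10 μM and 100 μM levosimendan. Results are %control = (test − positive control)/(negative control − positive control) × 100.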

[4] = molecular target: BLK (Homo sapiens, UniProt P51451); experiment: biochemical; design: DiscoverX KinomeScan competition binding assay across human kinases; per cent of control at 10 and 100 uM; details: competition binding, % of control
Outline: as §1

[5] = molecular target: ROS1 (Homo sapiens, UniProt P08922); experiment: biochemical; design: DiscoverX KinomeScan competition binding assay across human kinases; per cent of control at 10 and 100 uM; details: competition binding, % of control; read-out: Percent Control (100 uM Levosimendan)
Outline: as §1

[6] = molecular target: EPHB2 (Homo sapiens, UniProt P29323); experiment: biochemical; design: DiscoverX KinomeScan competition binding assay across human kinases; per cent of control at 10 and 100 uM; details: competition binding, % of control; read-out: Percent Control (100 uM Levosimendan)
Outline: as §1

[7] = molecular target: NLK (Homo sapiens, UniProt Q9UBE8); experiment: biochemical; design: DiscoverX KinomeScan competition binding assay across human kinases; per cent of control at 10 and 100 uM; details: competition binding, % of control; read-out: Percent Control (100 uM Levosimendan)
Outline: as §1

[8] = molecular target: FES (Homo sapiens, UniProt P07332); experiment: biochemical; design: DiscoverX KinomeScan competition binding assay across human kinases; per cent of control at 10 and 100 uM; details: competition binding, % of control; read-out: Percent Control (100 uM Levosimendan)
Outline: as §1

[9] = molecular target: CSNK2A1 (Homo sapiens, UniProt P68400); experiment: biochemical; design: DiscoverX KinomeScan competition binding assay across human kinases; per cent of control at 10 and 100 uM; details: competition binding, % of control; read-out: Percent Control (100 uM Levosimendan)
Outline: as §1

[10] = molecular target: AAK1 (Homo sapiens, UniProt Q2M2I8); experiment: biochemical; design: DiscoverX KinomeScan competition binding assay across human kinases; per cent of control at 10 and 100 uM; details: competition binding, % of control
Outline: as §1

[11] = molecular target: T2, ERK2 (Homo sapiens, UniProt P28482); experiment: biochemical; design: DiscoverX KinomeScan competition binding assay across human kinases; per cent of control at 10 and 100 uM; details: competition binding, % of control; read-out: Percent Control (100 uM Levosimendan)
T2 construct: gene MAPK1
Outline: as §1

[12] = molecular target: PRKCD (Homo sapiens, UniProt Q05655); experiment: biochemical; design: DiscoverX KinomeScan competition binding assay across human kinases; per cent of control at 10 and 100 uM; details: competition binding, % of control
Outline: as §1

[13] = molecular target: GAK (Homo sapiens, UniProt O14976); experiment: biochemical; design: DiscoverX KinomeScan competition binding assay across human kinases; per cent of control at 10 and 100 uM; details: competition binding, % of control
Outline: as §1

[14] = molecular target: FYN (Homo sapiens, UniProt P06241); experiment: biochemical; design: DiscoverX KinomeScan competition binding assay across human kinases; per cent of control at 10 and 100 uM; details: competition binding, % of control
Outline: as §1

[15] = molecular target: T3, S6K1 (Homo sapiens, UniProt P23443); experiment: biochemical; design: DiscoverX KinomeScan competition binding assay across human kinases; per cent of control at 10 and 100 uM; details: competition binding, % of control
T3 construct: gene RPS6KB1
Outline: as §1

[16] = molecular target: T4, ABL1(E255K)-phosphorylated (Homo sapiens, UniProt P00519, E255K); experiment: biochemical; design: DiscoverX KinomeScan competition binding assay across human kinases; per cent of control at 10 and 100 uM; details: competition binding, % of control
T4 construct: phosphorylated
Outline: as §1

[17] = molecular target: EPHB6 (Homo sapiens, UniProt O15197); experiment: biochemical; design: DiscoverX KinomeScan competition binding assay across human kinases; per cent of control at 10 and 100 uM; details: competition binding, % of control
Outline: as §1

[18] = molecular target: CSNK2A2 (Homo sapiens, UniProt P19784); experiment: biochemical; design: DiscoverX KinomeScan competition binding assay across human kinases; per cent of control at 10 and 100 uM; details: competition binding, % of control; read-out: Percent Control (100 uM Levosimendan)
Outline: as §1

[19] = molecular target: T5, FLT3 (Homo sapiens, UniProt P36888); experiment: KinomeScan competition binding assay; details: 10 μM levosimendan
T5 construct: DiscoverX KinomeScan panel kinase

[20] = molecular target: T6, MAP2K5 (Homo sapiens, UniProt Q13163); experiment: KinomeScan competition binding assay; details: 10 μM levosimendan
T6 construct: DiscoverX KinomeScan panel kinase

[21] = read-out: Percent Control (10 uM Levosimendan)
[22] = read-out: Percent Control (100 uM Levosimendan)

T4 sequence (P00519 whole entry E255K): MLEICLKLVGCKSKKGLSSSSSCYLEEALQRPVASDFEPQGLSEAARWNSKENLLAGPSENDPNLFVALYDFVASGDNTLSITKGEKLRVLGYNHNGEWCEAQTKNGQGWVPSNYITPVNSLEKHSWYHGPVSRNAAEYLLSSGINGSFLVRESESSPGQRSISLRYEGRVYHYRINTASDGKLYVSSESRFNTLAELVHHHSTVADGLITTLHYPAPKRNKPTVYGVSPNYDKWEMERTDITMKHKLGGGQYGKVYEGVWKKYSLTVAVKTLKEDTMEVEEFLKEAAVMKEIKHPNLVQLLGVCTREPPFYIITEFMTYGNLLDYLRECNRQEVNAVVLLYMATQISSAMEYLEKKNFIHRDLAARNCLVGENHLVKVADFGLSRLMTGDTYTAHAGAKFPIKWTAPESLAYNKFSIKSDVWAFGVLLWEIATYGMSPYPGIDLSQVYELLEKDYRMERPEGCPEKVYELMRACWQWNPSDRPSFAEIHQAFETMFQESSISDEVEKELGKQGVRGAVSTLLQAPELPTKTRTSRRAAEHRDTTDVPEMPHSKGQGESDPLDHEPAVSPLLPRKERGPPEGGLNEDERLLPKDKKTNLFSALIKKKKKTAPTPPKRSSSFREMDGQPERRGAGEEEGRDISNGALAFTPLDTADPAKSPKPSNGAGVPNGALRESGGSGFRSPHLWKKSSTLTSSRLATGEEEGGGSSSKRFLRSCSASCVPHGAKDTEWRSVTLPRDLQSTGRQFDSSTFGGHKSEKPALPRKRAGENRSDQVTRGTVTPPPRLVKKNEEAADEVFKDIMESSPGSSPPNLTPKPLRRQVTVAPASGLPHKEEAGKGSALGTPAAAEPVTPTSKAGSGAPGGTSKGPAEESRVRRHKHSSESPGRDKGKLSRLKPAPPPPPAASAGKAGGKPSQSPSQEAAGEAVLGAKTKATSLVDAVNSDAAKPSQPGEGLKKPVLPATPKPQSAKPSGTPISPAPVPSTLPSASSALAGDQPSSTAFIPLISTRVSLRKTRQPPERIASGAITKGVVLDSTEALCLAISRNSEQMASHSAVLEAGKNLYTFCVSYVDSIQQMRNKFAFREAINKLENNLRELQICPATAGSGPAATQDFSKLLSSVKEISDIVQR
Sequence of GAK (O14976 whole entry): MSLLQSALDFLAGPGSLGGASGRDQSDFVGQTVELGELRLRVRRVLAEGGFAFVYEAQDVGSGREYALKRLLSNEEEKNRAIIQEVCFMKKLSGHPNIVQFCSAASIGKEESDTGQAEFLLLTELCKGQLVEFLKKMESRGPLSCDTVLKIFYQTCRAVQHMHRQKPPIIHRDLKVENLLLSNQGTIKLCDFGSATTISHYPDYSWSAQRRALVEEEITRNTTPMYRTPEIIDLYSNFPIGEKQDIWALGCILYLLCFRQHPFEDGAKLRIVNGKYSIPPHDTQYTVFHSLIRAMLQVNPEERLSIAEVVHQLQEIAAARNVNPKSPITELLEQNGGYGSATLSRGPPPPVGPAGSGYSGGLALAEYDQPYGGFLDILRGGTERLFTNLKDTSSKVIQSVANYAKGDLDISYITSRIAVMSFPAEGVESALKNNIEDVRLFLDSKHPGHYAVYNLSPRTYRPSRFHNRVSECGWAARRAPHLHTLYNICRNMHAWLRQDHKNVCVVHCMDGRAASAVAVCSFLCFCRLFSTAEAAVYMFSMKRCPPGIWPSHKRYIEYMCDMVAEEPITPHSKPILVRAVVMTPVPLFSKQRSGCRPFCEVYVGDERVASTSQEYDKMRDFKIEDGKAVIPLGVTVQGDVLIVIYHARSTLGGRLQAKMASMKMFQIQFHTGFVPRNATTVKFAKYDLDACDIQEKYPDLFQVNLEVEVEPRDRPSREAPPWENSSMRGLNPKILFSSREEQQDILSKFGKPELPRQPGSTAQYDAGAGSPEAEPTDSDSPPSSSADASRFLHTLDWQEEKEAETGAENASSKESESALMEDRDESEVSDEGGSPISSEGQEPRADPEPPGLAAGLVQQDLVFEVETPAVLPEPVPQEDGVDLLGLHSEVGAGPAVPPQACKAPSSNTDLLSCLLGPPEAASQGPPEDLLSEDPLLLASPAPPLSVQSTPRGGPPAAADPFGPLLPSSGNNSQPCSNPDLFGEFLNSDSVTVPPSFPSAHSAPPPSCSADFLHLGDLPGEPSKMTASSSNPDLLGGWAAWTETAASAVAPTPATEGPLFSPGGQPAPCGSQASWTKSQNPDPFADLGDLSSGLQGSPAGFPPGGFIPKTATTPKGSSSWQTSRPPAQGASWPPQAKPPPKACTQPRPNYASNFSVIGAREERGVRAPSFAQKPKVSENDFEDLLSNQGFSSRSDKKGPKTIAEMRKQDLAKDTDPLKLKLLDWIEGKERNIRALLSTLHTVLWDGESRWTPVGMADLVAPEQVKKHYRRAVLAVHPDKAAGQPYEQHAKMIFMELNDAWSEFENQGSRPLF
Sequence of PRKCD (Q05655 whole entry): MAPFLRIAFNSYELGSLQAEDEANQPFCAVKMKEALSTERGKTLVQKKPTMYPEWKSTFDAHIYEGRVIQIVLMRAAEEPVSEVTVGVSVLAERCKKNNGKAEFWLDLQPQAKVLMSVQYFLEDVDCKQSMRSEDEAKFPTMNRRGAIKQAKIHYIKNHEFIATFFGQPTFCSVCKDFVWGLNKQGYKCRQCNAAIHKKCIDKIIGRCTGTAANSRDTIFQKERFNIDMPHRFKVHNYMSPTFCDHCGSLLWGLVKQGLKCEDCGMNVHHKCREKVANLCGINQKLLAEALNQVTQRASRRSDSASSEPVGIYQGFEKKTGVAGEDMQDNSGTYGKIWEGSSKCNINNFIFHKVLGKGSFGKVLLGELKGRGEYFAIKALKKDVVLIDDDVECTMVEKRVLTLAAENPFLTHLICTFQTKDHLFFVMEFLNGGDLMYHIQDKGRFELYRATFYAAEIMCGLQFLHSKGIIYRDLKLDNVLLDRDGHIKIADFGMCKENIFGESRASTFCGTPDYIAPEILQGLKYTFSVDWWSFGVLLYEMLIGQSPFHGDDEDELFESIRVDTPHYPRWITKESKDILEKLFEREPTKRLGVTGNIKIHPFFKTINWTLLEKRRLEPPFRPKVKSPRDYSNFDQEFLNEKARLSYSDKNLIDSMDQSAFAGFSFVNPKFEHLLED
Sequence of BLK (P51451 whole entry): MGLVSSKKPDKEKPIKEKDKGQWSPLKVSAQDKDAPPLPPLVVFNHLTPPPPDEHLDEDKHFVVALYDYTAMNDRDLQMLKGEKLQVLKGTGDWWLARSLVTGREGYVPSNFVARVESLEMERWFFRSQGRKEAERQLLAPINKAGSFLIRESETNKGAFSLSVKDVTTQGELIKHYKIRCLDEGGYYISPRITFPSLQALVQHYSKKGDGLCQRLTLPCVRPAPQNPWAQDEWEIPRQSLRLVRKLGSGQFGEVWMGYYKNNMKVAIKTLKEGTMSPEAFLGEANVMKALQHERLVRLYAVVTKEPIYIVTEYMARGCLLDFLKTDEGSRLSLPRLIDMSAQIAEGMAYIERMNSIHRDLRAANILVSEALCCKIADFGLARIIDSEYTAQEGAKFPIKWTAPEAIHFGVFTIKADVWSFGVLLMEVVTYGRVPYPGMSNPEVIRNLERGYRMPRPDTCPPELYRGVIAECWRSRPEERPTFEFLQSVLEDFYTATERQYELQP
Sequence of EPHB6 (O15197 whole entry): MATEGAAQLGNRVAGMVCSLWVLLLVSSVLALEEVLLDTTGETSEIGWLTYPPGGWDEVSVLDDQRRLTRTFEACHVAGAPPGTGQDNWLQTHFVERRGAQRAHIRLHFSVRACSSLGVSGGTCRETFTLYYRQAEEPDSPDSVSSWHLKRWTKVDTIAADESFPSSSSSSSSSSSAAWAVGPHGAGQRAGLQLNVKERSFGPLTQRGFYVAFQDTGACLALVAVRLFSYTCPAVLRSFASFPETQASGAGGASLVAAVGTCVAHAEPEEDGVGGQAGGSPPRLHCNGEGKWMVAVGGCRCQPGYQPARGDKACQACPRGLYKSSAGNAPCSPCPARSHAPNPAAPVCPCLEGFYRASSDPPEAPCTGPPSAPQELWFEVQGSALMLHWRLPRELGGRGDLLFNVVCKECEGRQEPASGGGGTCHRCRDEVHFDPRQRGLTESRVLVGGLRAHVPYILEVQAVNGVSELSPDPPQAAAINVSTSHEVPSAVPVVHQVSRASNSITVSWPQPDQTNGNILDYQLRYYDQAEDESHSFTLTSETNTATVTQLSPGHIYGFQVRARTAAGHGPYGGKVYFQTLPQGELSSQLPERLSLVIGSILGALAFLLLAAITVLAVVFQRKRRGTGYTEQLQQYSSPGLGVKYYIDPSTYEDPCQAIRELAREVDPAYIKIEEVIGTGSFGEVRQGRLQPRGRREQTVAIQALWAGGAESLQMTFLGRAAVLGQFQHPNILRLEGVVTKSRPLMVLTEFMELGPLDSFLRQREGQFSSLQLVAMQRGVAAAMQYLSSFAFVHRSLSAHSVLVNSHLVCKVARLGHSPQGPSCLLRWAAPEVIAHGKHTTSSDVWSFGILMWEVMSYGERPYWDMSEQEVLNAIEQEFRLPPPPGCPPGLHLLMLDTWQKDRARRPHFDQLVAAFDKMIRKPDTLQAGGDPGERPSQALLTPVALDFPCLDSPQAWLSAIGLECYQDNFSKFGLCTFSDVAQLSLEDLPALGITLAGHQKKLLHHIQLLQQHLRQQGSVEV
T2 sequence (P28482 whole entry): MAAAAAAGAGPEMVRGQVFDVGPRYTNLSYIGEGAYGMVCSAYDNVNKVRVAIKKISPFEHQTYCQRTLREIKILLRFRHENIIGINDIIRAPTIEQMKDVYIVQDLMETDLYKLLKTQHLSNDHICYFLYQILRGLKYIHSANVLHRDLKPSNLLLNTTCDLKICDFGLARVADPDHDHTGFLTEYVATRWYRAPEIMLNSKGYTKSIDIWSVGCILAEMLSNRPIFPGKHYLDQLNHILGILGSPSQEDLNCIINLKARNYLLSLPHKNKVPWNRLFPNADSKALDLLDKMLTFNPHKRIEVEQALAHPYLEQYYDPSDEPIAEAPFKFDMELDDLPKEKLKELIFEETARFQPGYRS

pKd [1]: 6.09 | percentage control at 10 μM [2]: < 30.0% | remaining binding at 100 µM [3]: 96% | remaining binding at 10 µM [4, 21]: 79% | remaining binding at 100 µM [4, 22]: 50% | remaining binding at 100 µM [5]: 62% | remaining binding at 100 µM [6]: 77% | remaining binding at 100 µM [7]: 100% | remaining binding at 100 µM [8]: 76% | remaining binding at 100 µM [9]: 100% | remaining binding at 10 µM [10, 21]: 31% | remaining binding at 100 µM [10, 22]: 24% | remaining binding at 100 µM [11]: 100% | remaining binding at 10 µM [12, 21]: 93% | remaining binding at 100 µM [12, 22]: 48% | remaining binding at 10 µM [13, 21]: 24% | remaining binding at 100 µM [13, 22]: 16% | remaining binding at 10 µM [14, 21]: 96% | remaining binding at 100 µM [14, 22]: 47% | remaining binding at 10 µM [15, 21]: 84% | remaining binding at 100 µM [15, 22]: 43% | remaining binding at 10 µM [16, 21]: 97% | remaining binding at 100 µM [16, 22]: 34% | remaining binding at 10 µM [17, 21]: 56% | remaining binding at 100 µM [17, 22]: 16% | remaining binding at 100 µM [18]: 73% | percentage control at 10 μM [19]: < 30.0% | percentage control at 10 μM [20]: < 30.0%
Compound: C[C@@H]1CC(=O)NN=C1c1ccc(NN=C(C#N)C#N)cc1 [levosimendan]
